Experimental data published in patent US9914730B2, “Azaquinazoline inhibitors of Atypical protein Kinase C” (Ignyta, Inc., priority 2012, dated 2018).

Biological target: T1, full-length human PKCι (Homo sapiens, UniProt P41743)
T1 construct: Recombinant, full-length human PKCι expressed in Sf21 insect cells is also commercially available; purchased; host or cells: Sf21 insect cells
T1 sequence (P41743 1-596): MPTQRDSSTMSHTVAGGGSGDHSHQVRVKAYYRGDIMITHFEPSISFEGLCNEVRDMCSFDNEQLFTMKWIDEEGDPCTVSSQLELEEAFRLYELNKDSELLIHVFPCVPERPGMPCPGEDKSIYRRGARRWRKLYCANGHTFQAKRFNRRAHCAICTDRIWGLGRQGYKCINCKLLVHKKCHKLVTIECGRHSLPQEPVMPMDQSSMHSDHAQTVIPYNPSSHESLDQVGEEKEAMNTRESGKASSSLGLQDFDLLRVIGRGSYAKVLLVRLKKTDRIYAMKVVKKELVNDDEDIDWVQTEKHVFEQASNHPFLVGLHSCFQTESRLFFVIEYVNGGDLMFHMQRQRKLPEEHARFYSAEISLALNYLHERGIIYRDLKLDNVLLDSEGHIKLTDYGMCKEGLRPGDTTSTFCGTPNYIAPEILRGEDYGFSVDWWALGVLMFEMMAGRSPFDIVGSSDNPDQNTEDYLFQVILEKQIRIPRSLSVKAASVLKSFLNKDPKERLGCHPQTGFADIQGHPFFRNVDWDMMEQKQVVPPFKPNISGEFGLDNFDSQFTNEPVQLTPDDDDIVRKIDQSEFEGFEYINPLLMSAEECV
Assay: PKCι IC50 IMAP assay, full-length PKCι at 150 μM ATP
Format: biochemical
Conditions: read-out: IC50 in IMAP assay against full length PKCi at 150 μM ATP
Method in brief: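 Full-length human PKCι from Sf21 cells, typically 15 pM, with 100 nM 5FAM-PKCε pseudosubstrate peptide and 150 μM ATP (5× apparent KM), 60 min at room temperature, 4% DMSO. IMAP fluorescence polarisation read-out; inhibition normalised to no-compound and no-enzyme controls, IC50 from curve fit.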

For `c1cc(-c2nc(N3CCNCC3)c3c(C4CCC4)cncc3n2)c2cc[nH]c2n1` [Example 2082, 5-Cyclobutyl-4-piperazin-1-yl-2-(1H-pyrrolo[2,3-b]pyridin-4-yl)-pyrido[3,4-d]pyrimidine], which IC50 is on record?
The IC50 was under 100 nM.

`CNc1nc(-c2ccnc(Nc3cccc(N4CCNCC4)c3)c2)nc2cncc(OC)c12` [Example 500, {5-Methoxy-2-[2-(3-piperazin-1-yl-phenylamino)-pyridin-4-yl]-pyrido[3,4-d]pyrimidin-4-yl}-methyl-amine] was tested. Which IC50 did it give?
The IC50 was 100 to 1000 nM.

With `Oc1nc(-c2ccnc(Nc3cccc(N4CCNCC4)c3)c2)nc2cnccc12` [Example 497, 2-[2-(3-piperazin-1-yl-phenylamino)-pyridin-4-yl]-pyrido[3,4-d]pyrimidin-4-ol] as the molecule, how does the IC50 read?
Its IC50 is 10000 to 40000 nM.

How did the IC50 turn out when `c1cc(-c2nc(N3CCNCC3)c3c(C4CC4)cncc3n2)c2cc(C3CCOCC3)[nH]c2n1` [Example 2111, 5-Cyclopropyl-4-piperazin-1-yl-2-[2-(tetrahydro-pyran-4-yl)-1H-pyrrolo[2,3-b]pyridin-4-yl]-pyrido[3,4-d]pyrimidine] was run?
Its IC50 is under 100 nM.

Which IC50 does the source give for `N[C@H](CNc1nc(-c2ccncc2)nc2c(-c3ccncc3)nccc12)Cc1ccccc1` [Example 100, N-[(2S)-2-amino-3-phenylpropyl]-2,8-bis(pyridin-4-yl)pyrido[3,4-d]pyrimidin-4-amine] here?
The IC50 was 100 to 1000 nM.

How did the IC50 turn out when `Fc1ccc(Cl)nc1Nc1cc(-c2nc(N3CCNCC3)c3c(C4CC4)cncc3n2)ccn1` [Example 801, (6-Chloro-3-fluoro-pyridin-2-yl)-[4-(5-cyclopropyl-4-piperazin-1-yl-pyrido[3,4-d]pyrimidin-2-yl)-pyridin-2-yl]-amine] was run?
Its IC50 is under 100 nM.

`COc1cncc2nc(-c3ccnc(Nc4ccc(N5CCOCC5)nc4)c3)nc(N3CCNCC3)c12` [Example 375, [4-(5-Methoxy-4-piperazin-1-yl-pyrido[3,4-d]pyrimidin-2-yl)-pyridin-2-yl]-(6-morpholin-4-yl-pyridin-3-yl)-amine] was tested. Which IC50 did it give?
Its IC50 is under 100 nM.

How did the IC50 turn out when `O=C(NCCO)C1CCN(c2nc(-c3ccnc(Nc4c(F)cccc4F)c3)nc3cncc(C4CC4)c23)CC1` [Example 685, 1-{5-Cyclopropyl-2-[2-(2,6-difluoro-phenylamino)-pyridin-4-yl]-pyrido[3,4-d]pyrimidin-4-yl}-piperidine-4-carboxylic acid (2-hydroxy-ethyl)-amide] was run?
The IC50 was 100 to 1000 nM.

How did the IC50 turn out when `N#Cc1ccc(CC(=O)Nc2cc(-c3nc(N[C@@H]4CCNC4)c4ccncc4n3)ccn2)cc1` [Example 349, 2-(4-Cyano-phenyl)-N-{4-[4-((R)-pyrrolidin-3-ylamino)-pyrido[3,4-d]pyrimidin-2-yl]-pyridin-2-yl}-acetamide] was run?
The IC50 was under 100 nM.

How did the IC50 turn out when `c1ccc(-c2ccc(Nc3cc(-c4nc(N5CCNCC5)c5c(C6CC6)cncc5n4)ccn3)cc2)cc1` [Example 683, Biphenyl-4-yl-[4-(5-cyclopropyl-4-piperazin-1-yl-pyrido[3,4-d]pyrimidin-2-yl)-pyridin-2-yl]-amine] was run?
Its IC50 is 1000 to 10000 nM.

Which IC50 does the source give for `CC(=O)N1CCC(N(C)c2nc(-c3ccnc(Nc4c(F)cccc4F)c3)nc3cncc(C4CC4)c23)CC1` [Example 2096, 1-[4-({5-Cyclopropyl-2-[2-(2,6-difluoro-phenylamino)-pyridin-4-yl]-pyrido[3,4-d]pyrimidin-4-yl}-methyl-amino)-piperidin-1-yl]-ethanone] here?
The IC50 was 100 to 1000 nM.

How did the IC50 turn out when `Fc1ncccc1Nc1cc(-c2nc(N3CCNCC3)c3c(C4CC4)cncc3n2)ccn1` [Example 495, [4-(5-cyclopropyl-4-piperazin-1-yl-pyrido[3,4-d]pyrimidin-2-yl)-pyridin-2-yl]-(2-fluoro-pyridin-3-yl)-amine] was run?
Its IC50 is under 100 nM.

Which IC50 does the source give for `CN(c1nc(-c2ccnc(Nc3c(F)cccc3F)c2)nc2cncc(C3CC3)c12)C1CCNC1` (stereo not drawn) [Example 2025, {5-Cyclopropyl-2-[2-(2,6-difluoro-phenylamino)-pyridin-4-yl]-pyrido[3,4-d]pyrimidin-4-yl}-methyl-pyrrolidin-3-yl-amine] here?
The IC50 was under 100 nM.

`CNc1cc(-c2nc(N3CCNCC3)c3c(C4CC4)cncc3n2)ccn1` [Example 630, [4-(5-Cyclopropyl-4-piperazin-1-yl-pyrido[3,4-d]pyrimidin-2-yl)-pyridin-2-yl]-methyl-amine] was tested. Which IC50 did it give?
The IC50 was under 100 nM.

With `Cc1cc2c(-c3nc(N4CCN[C@@H](C5CC5)C4)c4c(C5CC5)cncc4n3)ccnc2[nH]1` [Example 1216, 5-Cyclopropyl-4-((S)-3-cyclopropyl-piperazin-1-yl)-2-(2-methyl-1H-pyrrolo[2,3-b]pyridin-4-yl)-pyrido[3,4-d]pyrimidine] as the molecule, how does the IC50 read?
Its IC50 is under 100 nM.

For `COc1cncc2nc(-c3ccncc3)nc(N3CCC(N)(C(=O)Nc4ccccc4)C3)c12` (stereo not drawn) [Example 153, 3-Amino-1-(5-methoxy-2-pyridin-4-yl-pyrido[3,4-d]pyrimidin-4-yl)-pyrrolidine-3-carboxylic acid phenylamide], which IC50 is on record?
The IC50 was 1000 to 10000 nM.

For `c1cc(-c2nc(N3CCNCC3)c3c(C4CC4)cncc3n2)cc(Nc2cnn(C3CCOCC3)c2)n1` [Example 795, [4-(5-Cyclopropyl-4-piperazin-1-yl-pyrido[3,4-d]pyrimidin-2-yl)-pyridin-2-yl]-[1-(tetrahydro-pyran-4-yl)-1H-pyrazol-4-yl]-amine], which IC50 is on record?
Its IC50 is under 100 nM.

How did the IC50 turn out when `c1ccc2oc(Nc3cc(-c4nc(N5CCNCC5)c5c(C6CC6)cncc5n4)ccn3)nc2c1` [Example 2044, Benzooxazol-2-yl-[4-(5-cyclopropyl-4-piperazin-1-yl-pyrido[3,4-d]pyrimidin-2-yl)-pyridin-2-yl]-amine] was run?
The IC50 was under 100 nM.

With `N[C@H]1CCCN(c2nc(-c3ccnc(Nc4ncc(F)cc4F)c3)nc3cncc(C4CC4)c23)C1` [Example 2198, {4-[4-(3-Amino-piperidin-1-yl)-5-cyclopropyl-pyrido[3,4-d]pyrimidin-2-yl]-pyridin-2-yl}-(3,5-difluoro-pyridin-2-yl)-amine] as the molecule, how does the IC50 read?
Its IC50 is under 100 nM.

With `Fc1ccc(Nc2cc(-c3nc(N4CCCNCC4)c4c(C5CC5)cncc4n3)ccn2)cc1` [Example 699, [4-(5-Cyclopropyl-4-[1,4]diazepan-1-yl-pyrido[3,4-d]pyrimidin-2-yl)-pyridin-2-yl]-(4-fluoro-phenyl)-amine] as the molecule, how does the IC50 read?
Its IC50 is under 100 nM.

With `CC(Nc1cc(-c2nc(N3CCNCC3)c3c(C4CC4)cncc3n2)ccn1)C1CCCO1` (stereo not drawn) [Example 2066, [4-(5-Cyclopropyl-4-piperazin-1-yl-pyrido[3,4-d]pyrimidin-2-yl)-pyridin-2-yl]-[1-(tetrahydro-furan-2-yl)-ethyl]-amine] as the molecule, how does the IC50 read?
Its IC50 is under 100 nM.

Which IC50 does the source give for `FC(F)(F)C1CN(c2nc(-c3ccnc(NC4CC4)c3)nc3cncc(C4CC4)c23)CCN1` (stereo not drawn) [Example 508, Cyclopropyl-{4-[5-cyclopropyl-4-(3-trifluoromethyl-piperazin-1-yl)-pyrido[3,4-d]pyrimidin-2-yl]-pyridin-2-yl}-amine] here?
Its IC50 is under 100 nM.

With `FC(F)(F)c1ccnc(Nc2cc(-c3nc(N4CCNCC4)c4c(Cl)cncc4n3)ccn2)c1` [Example 259, [4-(5-Chloro-4-piperazin-1-yl-pyrido[3,4-d]pyrimidin-2-yl)-pyridin-2-yl]-(4-trifluoromethyl-pyridin-2-yl)-amine] as the molecule, how does the IC50 read?
The IC50 was under 100 nM.

For `FC(F)(F)c1ccc(-n2cc(Nc3cc(-c4nc(N5CCNCC5)c5c(C6CC6)cncc5n4)ccn3)c(Cl)n2)nc1` [Example 2154, [3-Chloro-1-(5-trifluoromethyl-pyridin-2-yl)-1H-pyrazol-4-yl]-[4-(5-cyclopropyl-4-piperazin-1-yl-pyrido[3,4-d]pyrimidin-2-yl)-pyridin-2-yl]-amine], which IC50 is on record?
The IC50 was under 100 nM.

`N#Cc1cccc(CC(=O)Nc2cc(-c3nc(N[C@@H]4CCNC4)c4ccncc4n3)ccn2)c1` [Example 348, 2-(3-Cyano-phenyl)-N-{4-[4-((R)-pyrrolidin-3-ylamino)-pyrido[3,4-d]pyrimidin-2-yl]-pyridin-2-yl}-acetamide] was tested. Which IC50 did it give?
The IC50 was under 100 nM.

`Cn1c(Nc2cc(-c3nc(N4CCNCC4)c4c(C5CC5)cncc4n3)ccn2)nc2ccccc21` [Example 2046, [4-(5-Cyclopropyl-4-piperazin-1-yl-pyrido[3,4-d]pyrimidin-2-yl)-pyridin-2-yl]-(1-methyl-1H-benzoimidazol-2-yl)-amine] was tested. Which IC50 did it give?
The IC50 was under 100 nM.

How did the IC50 turn out when `COc1cncc2nc(-c3ccnc4[nH]c(C)cc34)nc(N3CCNCC3)c12` [Example 1201, 5-Methoxy-2-(2-methyl-1H-pyrrolo[2,3-b]pyridin-4-yl)-4-piperazin-1-yl-pyrido[3,4-d]pyrimidine] was run?
The IC50 was under 100 nM.

`Oc1nc(-c2ccnc(Nc3cccc(CN4CCNCC4)c3)c2)nc2cnccc12` [Example 498, 2-[2-(3-piperazin-1-ylmethyl-phenylamino)-pyridin-4-yl]-pyrido[3,4-d]pyrimidin-4-ol] was tested. Which IC50 did it give?
Its IC50 is 10000 to 40000 nM.

With `COc1cncc2nc(-c3ccnc(NC(=O)Cc4ccc(N)cc4)c3)nc(N[C@@H]3CCNC3)c12` [Example 327, 2-(4-Amino-phenyl)-N-{4-[5-methoxy-4-((R)-pyrrolidin-3-ylamino)-pyrido[3,4-d]pyrimidin-2-yl]-pyridin-2-yl}-acetamide] as the molecule, how does the IC50 read?
The IC50 was under 100 nM.

With `c1cc2c(N[C@@H]3CCNC3)nc(-c3ccnc(Nc4ccc(N5CCOCC5)nc4)c3)nc2cn1` [Example 319, {2-[2-(6-Morpholin-4-yl-pyridin-3-ylamino)-pyridin-4-yl]-pyrido[3,4-d]pyrimidin-4-yl}-(R)-pyrrolidin-3-yl-amine] as the molecule, how does the IC50 read?
The IC50 was under 100 nM.
